# pEC50, pIC50: −log10 of the molar value. Where two headings read alike, the source gives them in different places.
# What was measured:
# Assay in all cases: 72-hour CellTiter-Glo 2.0 growth inhibition screen (single agent, 9x9 combination dose matrix);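 on Best CI Level: inhibition effect level at which the best CI was calculated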
# Format in all cases: cell-based
# Gp2D = conditions: for pEC50: GP2d
# SW48 KRAS (G12C/+) = conditions: for pEC50: SW48, 72 h, read-out: EC50
# SW837 = conditions: for pEC50: SW837, 72 h
# AsPC-1 = conditions: for pEC50: ASPC1, 72 h
# NCI-H358 = conditions: for pEC50: NCI-H358, 72 h
# [1] = Gp2D (KRAS G12D), enhancer + MEI-522 (Voruciclib), 72 h;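 on Best CI Level: inhibition effect level at which the best CI was calculated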
# [2] = Gp2D, Colorectal, Additional Single Agent Responses (inhibition, % I), 72 h
# [3] = enhancer combined with MEI-522 (Voruciclib), Gp2D (Colorectal), 72 hours, inhibition data
# [4] = Homo sapiens, SW48 KRAS (G12C/+), Colorectal, Additional Single Agent Responses (inhibition, % I), 72 h
# [5] = Homo sapiens, SW48 KRAS (G12C/+), Colorectal, growth inhibition (GI) curve, single agent, 72 h
# [6] = SW48 KRAS (G12C/+), enhancer + MEI-522 (Voruciclib), 72 h
# [7] = enhancer combined with MEI-522 (Voruciclib), SW48 KRAS (G12C/+) (Colorectal), 72 hours, inhibition data
# [8] = Homo sapiens, SW837, Colorectal, Additional Single Agent Responses (inhibition, % I), 72 h
# [9] = Homo sapiens, SW837, Colorectal, growth inhibition (GI) curve, single agent, 72 h
# [10] = SW837 (KRAS G12C), enhancer + MEI-522 (Voruciclib), 72 h;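 on Best CI Level: inhibition effect level at which the best CI was calculated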
# [11] = enhancer combined with MEI-522 (Voruciclib), SW837 (Colorectal), 72 hours, inhibition data
# [12] = AsPC-1 (KRAS G12D), enhancer + MEI-522 (Voruciclib), 72 h;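 on Best CI Level: inhibition effect level at which the best CI was calculated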
# [13] = enhancer combined with MEI-522 (Voruciclib), AsPC-1 (Pancreas), 72 hours, inhibition data
# [14] = NCl-H358 (KRAS G12C), enhancer + MEI-522 (Voruciclib), 72 h
# [15] = enhancer combined with MEI-522 (Voruciclib), NCl-H358 (Lung), 72 hours, inhibition data
structure (smiles),measurement,setting,value
CN1CCN(c2ccc(OC(F)(F)F)c(Nc3ncc4c(n3)-c3c(c(C(N)=O)nn3CCO)CC4)c2)CC1 [Onvansertib],pEC50,"Gp2D; 72 h, Colorectal, Additional Single Agent Responses (inhibition, % I)",7.62
same,pEC50,"Gp2D; 72 h, Colorectal, growth inhibition (GI) curve, single agent",7.47
same,Best CI,Gp2D; [1],0.96
same,Bliss Volume,Gp2D; [1],7.51
same,HSA volume,Gp2D; [1],−1.36
same,Loewe Volume,Gp2D; [1],−1.41
same,Synergy Score,Gp2D; [1],3.16
same,pIC50,Gp2D; [2],7.59
same,Response Area,Gp2D; [2],4.29
same,Emax,"Gp2D; Gp2D, Colorectal, Additional Single Agent Responses, 72 h, read-out: Max Response (% I)",93%
same,GI50,"Gp2D; Gp2D, Colorectal, growth inhibition (GI) curve, single agent, 72 h",0.0224 µM
same,Response Area,"Gp2D; Gp2D, Colorectal, growth inhibition (GI), AUC, single agent, 72 h",7.46
same,Emax,"Gp2D; Gp2D, Colorectal, growth inhibition (GI), single agent, 72 h, read-out: Max Response (% GI)",170%
same,Best CI,Gp2D; [3],0.77
same,Best CI Level,Gp2D; [3],20
same,Bliss Volume,Gp2D; [3],0.17
same,HSA volume,Gp2D; [3],0.25
same,Loewe Volume,Gp2D; [3],0.05
same,Synergy Score,Gp2D; [3],0.56
same,pEC50,SW48 KRAS (G12C/+); [4],7.81
same,pEC50,SW48 KRAS (G12C/+); [5],7.77
same,pIC50,SW48 KRAS (G12C/+); [4],7.79
same,Emax,"SW48 KRAS (G12C/+); Homo sapiens, SW48 KRAS (G12C/+), Colorectal, Additional Single Agent Responses, 72 h, read-out: Max Response (% I)",93%
same,GI50,SW48 KRAS (G12C/+); [5],0.0159 µM
same,Emax,"SW48 KRAS (G12C/+); Homo sapiens, SW48 KRAS (G12C/+), Colorectal, growth inhibition (GI), single agent, 72 h, read-out: Max Response (% GI)",159%
same,Response Area,"SW48 KRAS (G12C/+); SW48 KRAS (G12C/+), Colorectal, Additional Single Agent Responses (inhibition, % I), 72 h",4.14
same,Response Area,"SW48 KRAS (G12C/+); SW48 KRAS (G12C/+), Colorectal, growth inhibition (GI), AUC, single agent, 72 h",5.77
same,Best CI,SW48 KRAS (G12C/+); [6],0.86
same,Bliss Volume,SW48 KRAS (G12C/+); [6],2.74
same,HSA volume,SW48 KRAS (G12C/+); [6],−2.16
same,Loewe Volume,SW48 KRAS (G12C/+); [6],−0.91
same,Synergy Score,SW48 KRAS (G12C/+); [6],5.28
same,Best CI,SW48 KRAS (G12C/+); [7],0.67
same,Best CI Level,SW48 KRAS (G12C/+); [7],20
same,Bliss Volume,SW48 KRAS (G12C/+); [7],−0.08
same,HSA volume,SW48 KRAS (G12C/+); [7],0.19
same,Loewe Volume,SW48 KRAS (G12C/+); [7],−0.06
same,Synergy Score,SW48 KRAS (G12C/+); [7],1.03
same,pEC50,SW837; [8],7.45
same,pEC50,SW837; [9],7.38
same,pIC50,SW837; [8],7.27
same,Emax,"SW837; Homo sapiens, SW837, Colorectal, Additional Single Agent Responses, 72 h, read-out: Max Response (% I)",76%
same,GI50,SW837; [9],0.0341 µM
same,Emax,"SW837; Homo sapiens, SW837, Colorectal, growth inhibition (GI), single agent, 72 h, read-out: Max Response (% GI)",118%
same,Best CI,SW837; [10],0.78
same,Bliss Volume,SW837; [10],0.66
same,HSA volume,SW837; [10],−1.30
same,Loewe Volume,SW837; [10],−4.09
same,Synergy Score,SW837; [10],0.88
same,Response Area,"SW837; SW837, Colorectal, Additional Single Agent Responses (inhibition, % I), 72 h",3.32
same,Response Area,"SW837; SW837, Colorectal, growth inhibition (GI), AUC, single agent, 72 h",5.06
same,Best CI,SW837; [11],0.76
same,Best CI Level,SW837; [11],20
same,Bliss Volume,SW837; [11],−1.39
same,HSA volume,SW837; [11],−0.59
same,Loewe Volume,SW837; [11],−2.03
same,Synergy Score,SW837; [11],0.33
same,Best CI,AsPC-1; [12],0.84
same,Bliss Volume,AsPC-1; [12],−1.25
same,HSA volume,AsPC-1; [12],−1.39
same,Loewe Volume,AsPC-1; [12],−0.75
same,Synergy Score,AsPC-1; [12],1.41
same,Response Area,"AsPC-1; AsPC-1, Pancreas, Additional Single Agent Responses (inhibition, % I), 72 h",2.50
same,Response Area,"AsPC-1; AsPC-1, Pancreas, growth inhibition (GI), AUC, single agent, 72 h",3.48
same,pEC50,"AsPC-1; Homo sapiens, AsPC-1, Pancreas, Additional Single Agent Responses (inhibition, % I), 72 h",7.02
same,pEC50,"AsPC-1; Homo sapiens, AsPC-1, Pancreas, growth inhibition (GI) curve, single agent, 72 h",7.08
same,pIC50,"AsPC-1; Homo sapiens, ASPC1, AsPC-1, Pancreas, Additional Single Agent Responses (inhibition, % I), 72 h",6.48
same,Emax,"AsPC-1; Homo sapiens, ASPC1, AsPC-1, Pancreas, Additional Single Agent Responses, 72 h, read-out: Max Response (% I)",60%
same,GI50,"AsPC-1; Homo sapiens, ASPC1, AsPC-1, Pancreas, growth inhibition (GI) curve, single agent, 72 h",0.109 µM
same,Emax,"AsPC-1; Homo sapiens, ASPC1, AsPC-1, Pancreas, growth inhibition (GI), single agent, 72 h, read-out: Max Response (% GI)",84%
same,Best CI,AsPC-1; [13],1.13
same,Best CI Level,AsPC-1; [13],20
same,Bliss Volume,AsPC-1; [13],−1.91
same,HSA volume,AsPC-1; [13],−0.98
same,Loewe Volume,AsPC-1; [13],−0.67
same,Synergy Score,AsPC-1; [13],0.67
same,pEC50,"NCI-H358; Homo sapiens, NCl-H358, Lung, Additional Single Agent Responses (inhibition, % I), 72 h",7.78
same,pEC50,"NCI-H358; Homo sapiens, NCl-H358, Lung, growth inhibition (GI) curve, single agent, 72 h",7.74
same,pIC50,"NCI-H358; Homo sapiens, NCI-H358, NCl-H358, Lung, Additional Single Agent Responses (inhibition, % I), 72 h",7.69
same,Emax,"NCI-H358; Homo sapiens, NCI-H358, NCl-H358, Lung, Additional Single Agent Responses, 72 h, read-out: Max Response (% I)",82%
same,GI50,"NCI-H358; Homo sapiens, NCI-H358, NCl-H358, Lung, growth inhibition (GI) curve, single agent, 72 h",0.0183 µM
same,Emax,"NCI-H358; Homo sapiens, NCI-H358, NCl-H358, Lung, growth inhibition (GI), single agent, 72 h, read-out: Max Response (% GI)",127%
same,Best CI,NCI-H358; [14],0.27
same,Bliss Volume,NCI-H358; [14],−1.00
same,HSA volume,NCI-H358; [14],−5.36
same,Loewe Volume,NCI-H358; [14],−3.73
same,Synergy Score,NCI-H358; [14],6.46
same,Response Area,"NCI-H358; NCl-H358, Lung, Additional Single Agent Responses (inhibition, % I), 72 h",3.36
same,Response Area,"NCI-H358; NCl-H358, Lung, growth inhibition (GI), AUC, single agent, 72 h",4.69
same,Best CI,NCI-H358; [15],0.38
same,Best CI Level,NCI-H358; [15],75
same,Bliss Volume,NCI-H358; [15],−3.69
same,HSA volume,NCI-H358; [15],−3.63
same,Loewe Volume,NCI-H358; [15],−3.23
same,Synergy Score,NCI-H358; [15],1.36
